Measurements published in ChEMBL document CHEMBL3734713, “4-Thiazolidinone derivatives as potent antimicrobial agents: microwave-assisted synthesis, biological evaluation and docking studies” (2015).
Values after ≈ are worked out from the molar mass of the structure shown.

Key:
Aspergillus fumigatus = test: Antifungal activity against Aspergillus fumigatus ATCC 1022 assessed as growth inhibition after 72 hrs at 28 degC by serial dilution method; assay type: functional; settings: for MIC: Aspergillus fumigatus, ATCC 1022, 72 h
Aspergillus versicolor = test: Antifungal activity against Aspergillus versicolor ATCC 11730 assessed as growth inhibition after 72 hrs at 28 degC by serial dilution method; assay type: functional; settings: for MIC: Aspergillus versicolor, ATCC 11730, 72 h
Aspergillus ochraceus = test: Antifungal activity against Aspergillus ochraceus ATCC 12066 assessed as growth inhibition after 72 hrs at 28 degC by serial dilution method; assay type: functional; settings: for MIC: Aspergillus ochraceus, ATCC 12066, 72 h
Aspergillus niger = test: Antifungal activity against Aspergillus niger ATCC 6275 assessed as growth inhibition after 72 hrs at 28 degC by serial dilution method; assay type: functional; settings: for MIC: Aspergillus niger, ATCC 6275, 72 h
Trichoderma viride = test: Antifungal activity against Trichoderma viride IAM 5061 assessed as growth inhibition after 72 hrs at 28 degC by serial dilution method; assay type: functional; settings: for MIC: Trichoderma viride, IAM 5061, 72 h
Talaromyces funiculosus = test: Antifungal activity against Penicillium funiculosum ATCC 36839 assessed as growth inhibition after 72 hrs at 28 degC by serial dilution method; assay type: functional; settings: for MIC: Talaromyces funiculosus, ATCC 36839, 72 h
Penicillium ochrochloron = test: Antifungal activity against Penicillium ochrochloron ATCC 9112 assessed as growth inhibition after 72 hrs at 28 degC by serial dilution method; assay type: functional; settings: for MIC: Penicillium ochrochloron, ATCC 9112, 72 h
Candida albicans = test: Antifungal activity against Candida albicans ATCC 10231 assessed as growth inhibition after 72 hrs at 28 degC by serial dilution method; assay type: functional; settings: for MIC: Candida albicans, ATCC 10231, 72 h
Bacillus cereus = test: Antibacterial activity against clinical isolates of Bacillus cereus assessed as growth inhibition after 24 hrs at 37 degC by iodonitrotetrazolium chloride staining based microdilution broth assay; assay type: functional
Micrococcus flavus = test: Antibacterial activity against Micrococcus flavus ATCC 10240 assessed as growth inhibition after 24 hrs at 37 degC by iodonitrotetrazolium chloride staining based microdilution broth assay; assay type: functional; settings: ATCC 10240, 24 h
Staphylococcus aureus = test: Antibacterial activity against Staphylococcus aureus ATCC 6538 assessed as growth inhibition after 24 hrs at 37 degC by iodonitrotetrazolium chloride staining based microdilution broth assay; assay type: functional; settings: ATCC 6538, 24 h
Listeria monocytogenes = test: Antibacterial activity against Listeria monocytogenes NCTC 7973 assessed as growth inhibition after 24 hrs at 37 degC by iodonitrotetrazolium chloride staining based microdilution broth assay; assay type: functional; settings: NCTC 7973, 24 h
Escherichia coli = test: Antibacterial activity against Escherichia coli ATCC 35210 assessed as growth inhibition after 24 hrs at 37 degC by iodonitrotetrazolium chloride staining based microdilution broth assay; assay type: functional; settings: ATCC 35210, 24 h
Enterobacter cloacae = test: Antibacterial activity against human isolate of Enterobacter cloacae assessed as growth inhibition after 24 hrs at 37 degC by iodonitrotetrazolium chloride staining based microdilution broth assay; assay type: functional
Pseudomonas aeruginosa = test: Antibacterial activity against Pseudomonas aeruginosa ATCC 27853 assessed as growth inhibition after 24 hrs at 37 degC by iodonitrotetrazolium chloride staining based microdilution broth assay; assay type: functional; settings: ATCC 27853, 24 h
Salmonella typhimurium = test: Antibacterial activity against Salmonella typhimurium ATCC 13311 assessed as growth inhibition after 24 hrs at 37 degC by iodonitrotetrazolium chloride staining based microdilution broth assay; assay type: functional, Salmonella enterica subsp. enterica serovar Typhimurium; settings: Salmonella enterica, ATCC 13311, 24 h
[1] = molecular target: Human immunodeficiency virus type 1 reverse transcriptase (Human immunodeficiency virus 1) (UniProt Q72547); test: Inhibition of HIV1 reverse transcriptase assessed as residual enzyme activity by measuring reduction in [3H]dTTP incorporation into poly(rA)-oligo(dT) at 4 uM incubated for 15 mins by scintillation counting method relative to control

Structure (SMILES)	MFC99.5 (Aspergillus fumigatus) [×10⁻² umol/ml]	MIC (Aspergillus fumigatus) [µM]	MFC99.5 (Aspergillus versicolor) [×10⁻² umol/ml]	MIC (Aspergillus versicolor) [µM]	MFC99.5 (Aspergillus ochraceus) [×10⁻² umol/ml]	MIC (Aspergillus ochraceus) [µM]	MFC99.5 (Aspergillus niger) [×10⁻² umol/ml]	MIC (Aspergillus niger) [µM]	MFC99.5 (Trichoderma viride) [×10⁻² umol/ml]	MIC (Trichoderma viride) [µM]	MFC99.5 (Talaromyces funiculosus) [×10⁻² umol/ml]	MIC (Talaromyces funiculosus) [µM]	MFC99.5 (Penicillium ochrochloron) [×10⁻² umol/ml]	MIC (Penicillium ochrochloron) [µM]	MFC99.5 (Candida albicans) [×10⁻² umol/ml]	MIC (Candida albicans) [µM]	MBC (Bacillus cereus) [µM]	MIC (Bacillus cereus) [µM]	MBC (Micrococcus flavus) [µM]	MIC (Micrococcus flavus) [µM]	further results
c1ccc(-c2ccc(C(c3ccccc3)n3ccnc3)cc2)cc1 (stereo not given) [BIFONAZOLE]	64	480 (≈ 149 µg/mL)	64	320 (≈ 99.3 µg/mL)	80	480 (≈ 149 µg/mL)	64	480 (≈ 149 µg/mL)	80	640 (≈ 199 µg/mL)	80	640 (≈ 199 µg/mL)	64	480 (≈ 149 µg/mL)	48	320 (≈ 99.3 µg/mL)					
COc1ccc(OC)c(C2SCC(=O)N2c2nc(C34CC5CC(CC(C5)C3)C4)cs2)c1 (stereo not given)	32.85	219 (≈ 100 µg/mL)	32.85	219 (≈ 100 µg/mL)	32.85	110 (≈ 50 µg/mL)	87.6	219 (≈ 100 µg/mL)	21.9	219 (≈ 100 µg/mL)	43.8	219 (≈ 100 µg/mL)	43.8	219 (≈ 100 µg/mL)	109.5	876 (≈ 400 µg/mL)	438 (≈ 200 µg/mL)	219 (≈ 100 µg/mL)	438 (≈ 200 µg/mL)	219 (≈ 100 µg/mL)	MBC (Staphylococcus aureus): 657 µM (≈ 300 µg/mL); MIC (Staphylococcus aureus): 438 µM (≈ 200 µg/mL); MBC (Listeria monocytogenes): 657 µM (≈ 300 µg/mL); MIC (Listeria monocytogenes): 438 µM (≈ 200 µg/mL); MBC (Escherichia coli): 438 µM (≈ 200 µg/mL); MIC (Escherichia coli): 219 µM (≈ 100 µg/mL); MBC (Enterobacter cloacae): 438 µM (≈ 200 µg/mL); MIC (Enterobacter cloacae): 219 µM (≈ 100 µg/mL); MBC (Pseudomonas aeruginosa): 438 µM (≈ 200 µg/mL); MIC (Pseudomonas aeruginosa): 438 µM (≈ 200 µg/mL); MBC (Salmonella typhimurium): 438 µM (≈ 200 µg/mL); MIC (Salmonella typhimurium): 219 µM (≈ 100 µg/mL); Activity [1]: 80.7%
O=C1CSC(c2ccc(Br)cc2)N1c1nc(C23CC4CC(CC(C4)C2)C3)cs1 (stereo not given)	21.02	210 (≈ 99.9 µg/mL)	10.51	105 (≈ 50 µg/mL)	42.04	105 (≈ 50 µg/mL)	31.54	210 (≈ 99.9 µg/mL)	10.51	105 (≈ 50 µg/mL)	52.58	210 (≈ 99.9 µg/mL)	21.02	210 (≈ 99.9 µg/mL)	73.6	526 (≈ 250 µg/mL)	210 (≈ 99.9 µg/mL)	105 (≈ 49.9 µg/mL)	420 (≈ 200 µg/mL)	210 (≈ 99.9 µg/mL)	MBC (Staphylococcus aureus): 420 µM (≈ 200 µg/mL); MIC (Staphylococcus aureus): 420 µM (≈ 200 µg/mL); MBC (Listeria monocytogenes): 630 µM (≈ 300 µg/mL); MIC (Listeria monocytogenes): 420 µM (≈ 200 µg/mL); MBC (Escherichia coli): 210 µM (≈ 99.9 µg/mL); MIC (Escherichia coli): 210 µM (≈ 99.9 µg/mL); MBC (Enterobacter cloacae): 420 µM (≈ 200 µg/mL); MIC (Enterobacter cloacae): 20 µM (≈ 9.51 µg/mL); MBC (Pseudomonas aeruginosa): 630 µM (≈ 300 µg/mL); MIC (Pseudomonas aeruginosa): 420 µM (≈ 200 µg/mL); MBC (Salmonella typhimurium): 420 µM (≈ 200 µg/mL); MIC (Salmonella typhimurium): 210 µM (≈ 99.9 µg/mL); Activity [1]: 59.9%
CC1(C)S[C@@H]2[C@H](NC(=O)[C@H](N)c3ccccc3)C(=O)N2[C@H]1C(=O)O [AMPICILLIN]																	372 (≈ 130 µg/mL)	248 (≈ 86.7 µg/mL)	372 (≈ 130 µg/mL)	248 (≈ 86.7 µg/mL)	MBC (Staphylococcus aureus): 378 µM (≈ 132 µg/mL); MIC (Staphylococcus aureus): 248 µM (≈ 86.7 µg/mL); MBC (Listeria monocytogenes): 744 µM (≈ 260 µg/mL); MIC (Listeria monocytogenes): 372 µM (≈ 130 µg/mL); MBC (Escherichia coli): 492 µM (≈ 172 µg/mL); MIC (Escherichia coli): 372 µM (≈ 130 µg/mL); MBC (Enterobacter cloacae): 372 µM (≈ 130 µg/mL); MIC (Enterobacter cloacae): 248 µM (≈ 86.6 µg/mL); MBC (Pseudomonas aeruginosa): 1240 µM (≈ 433 µg/mL); MIC (Pseudomonas aeruginosa): 744 µM (≈ 260 µg/mL); MBC (Salmonella typhimurium): 492 µM (≈ 172 µg/mL); MIC (Salmonella typhimurium): 248 µM (≈ 86.7 µg/mL)
CN[C@@H]1[C@H](O[C@H]2[C@H](O[C@H]3[C@H](O)[C@@H](O)[C@H](N=C(N)N)[C@@H](O)[C@@H]3N=C(N)N)O[C@@H](C)[C@]2(O)C=O)O[C@@H](CO)[C@H](O)[C@H]1O [STREPTOMYCIN]																	86 (≈ 50 µg/mL)	43 (≈ 25 µg/mL)	172 (≈ 100 µg/mL)	86 (≈ 50 µg/mL)	MBC (Staphylococcus aureus): 344 µM (≈ 200 µg/mL); MIC (Staphylococcus aureus): 172 µM (≈ 100 µg/mL); MBC (Listeria monocytogenes): 516 µM (≈ 300 µg/mL); MIC (Listeria monocytogenes): 258 µM (≈ 150 µg/mL); MBC (Escherichia coli): 344 µM (≈ 200 µg/mL); MIC (Escherichia coli): 172 µM (≈ 100 µg/mL); MBC (Enterobacter cloacae): 86 µM (≈ 50 µg/mL); MIC (Enterobacter cloacae): 43 µM (≈ 25 µg/mL); MBC (Pseudomonas aeruginosa): 344 µM (≈ 200 µg/mL); MIC (Pseudomonas aeruginosa): 272 µM (≈ 158 µg/mL); MBC (Salmonella typhimurium): 344 µM (≈ 200 µg/mL); MIC (Salmonella typhimurium): 172 µM (≈ 100 µg/mL)
CC(=O)N1CCN(c2ccc(OCC3COC(Cn4ccnc4)(c4ccc(Cl)cc4Cl)O3)cc2)CC1 (stereo not given) [KETOCONAZOLE]	95	380 (≈ 202 µg/mL)	95	380 (≈ 202 µg/mL)	95	380 (≈ 202 µg/mL)	95	380 (≈ 202 µg/mL)	570	4750 (≈ 2520 µg/mL)	95	380 (≈ 202 µg/mL)	380	3800 (≈ 2020 µg/mL)	95	380 (≈ 202 µg/mL)					
